Calls of active or inactive are those of the source. No rule for the calls is given here.

For the data set, the system named is CCRIS mutagenicity, Ames/micronucleus/aberration tests. The data set can be described thus: CCRIS mutagenicity studies.
[1] abbreviates: Test System: AMES SALMONELLA TYPHIMURIUM, Strain/Indicator: TA98, Metabolic Activation: HAMSTER, LIVER, S-9, AROCLOR 1254 (10%), Method: PREINCUBATION
Where [2] appears, read: Test System: AMES SALMONELLA TYPHIMURIUM, Strain/Indicator: TA98, Metabolic Activation: NONE, Method: PREINCUBATION
[3] abbreviates: Test System: AMES SALMONELLA TYPHIMURIUM, Strain/Indicator: TA100, Metabolic Activation: HAMSTER, LIVER, S-9, AROCLOR 1254 (10%), Method: PREINCUBATION
Setting [4] is: Test System: AMES SALMONELLA TYPHIMURIUM, Strain/Indicator: TA100, Metabolic Activation: NONE, Method: PREINCUBATION
Where [5] appears, read: Test System: AMES SALMONELLA TYPHIMURIUM, Strain/Indicator: TA1535, Metabolic Activation: HAMSTER, LIVER, S-9, AROCLOR 1254 (10%), Method: PREINCUBATION
[6] abbreviates: Test System: AMES SALMONELLA TYPHIMURIUM, Strain/Indicator: TA1535, Metabolic Activation: NONE, Method: PREINCUBATION
[7] abbreviates: Test System: AMES SALMONELLA TYPHIMURIUM, Strain/Indicator: TA1535, Metabolic Activation: RAT, LIVER, S-9, AROCLOR 1254 (10%), Method: PREINCUBATION
The mark [8] stands for this setting: Test System: AMES SALMONELLA TYPHIMURIUM, Strain/Indicator: TA1537, Metabolic Activation: NONE, Method: PREINCUBATION
[9] abbreviates: Test System: AMES SALMONELLA TYPHIMURIUM, Strain/Indicator: TA98, Metabolic Activation: NONE, Method: STANDARD PLATE.
Setting [10] is: Test System: AMES SALMONELLA TYPHIMURIUM, Strain/Indicator: TA100, Metabolic Activation: NONE, Method: STANDARD PLATE.
Where [11] appears, read: Test System: AMES SALMONELLA TYPHIMURIUM, Strain/Indicator: TA100, Metabolic Activation: RAT, LIVER, S-9, AROCLOR 1254, Method: STANDARD PLATE.

Consider `CCCCCCCCn1sccc1=O`, for which the mutagenic call runs as follows: (Test System: AMES SALMONELLA TYPHIMURIUM, Strain/Indicator: TA97, Metabolic Activation: HAMSTER, LIVER, S-9, AROCLOR 1254 (10%), Method: PREINCUBATION) “inactive; negative”; (Test System: AMES SALMONELLA TYPHIMURIUM, Strain/Indicator: TA97, Metabolic Activation: HAMSTER, LIVER, S-9, AROCLOR 1254 (30%), Method: PREINCUBATION) “inactive; negative”; (Test System: AMES SALMONELLA TYPHIMURIUM, Strain/Indicator: TA97, Metabolic Activation: NONE, Method: PREINCUBATION) “inactive; negative”; (Test System: AMES SALMONELLA TYPHIMURIUM, Strain/Indicator: TA97, Metabolic Activation: RAT, LIVER, S-9, AROCLOR 1254 (10 OR 30%), Method: PREINCUBATION) “inactive; negative”; under setting [1], “inactive; negative”; (Test System: AMES SALMONELLA TYPHIMURIUM, Strain/Indicator: TA98, Metabolic Activation: HAMSTER, LIVER, S-9, AROCLOR 1254 (30%), Method: PREINCUBATION) “inactive; negative”. Moreover, the mutagenic call under setting [2] was “inactive; negative”; the mutagenic call (Test System: AMES SALMONELLA TYPHIMURIUM, Strain/Indicator: TA98, Metabolic Activation: RAT, LIVER, S-9, AROCLOR 1254 (10 OR 30%), Method: PREINCUBATION) was “inactive; negative”; the mutagenic call under setting [3] is “inactive; negative”; the mutagenic call (Test System: AMES SALMONELLA TYPHIMURIUM, Strain/Indicator: TA100, Metabolic Activation: HAMSTER, LIVER, S-9, AROCLOR 1254 (30%), Method: PREINCUBATION) is “inactive; negative”; the mutagenic call under setting [4] is “inactive; negative”; the mutagenic call (Test System: AMES SALMONELLA TYPHIMURIUM, Strain/Indicator: TA100, Metabolic Activation: RAT, LIVER, S-9, AROCLOR 1254 (10 OR 30%), Method: PREINCUBATION) was “inactive; negative”. In addition, the mutagenic call runs as follows: under setting [5], “inactive; negative”; (Test System: AMES SALMONELLA TYPHIMURIUM, Strain/Indicator: TA1535, Metabolic Activation: HAMSTER, LIVER, S-9, AROCLOR 1254 (30%), Method: PREINCUBATION) “inactive; negative”; under setting [6], “inactive; negative”; under setting [7], “inactive; negative”; (Test System: AMES SALMONELLA TYPHIMURIUM, Strain/Indicator: TA1535, Metabolic Activation: RAT, LIVER, S-9, AROCLOR 1254 (30%), Method: PREINCUBATION) “inactive; negative”; (Test System: AMES SALMONELLA TYPHIMURIUM, Strain/Indicator: TA1537, Metabolic Activation: HAMSTER, LIVER, S-9, AROCLOR 1254 (30%), Method: PREINCUBATION) “inactive; negative”. For the same molecule, the mutagenic call by setting is: under setting [8], “inactive; negative”; (Test System: AMES SALMONELLA TYPHIMURIUM, Strain/Indicator: TA1537, Metabolic Activation: RAT, LIVER, S-9, AROCLOR 1254 (30%), Method: PREINCUBATION) “inactive; negative”.
`CCC[CH2][Sn]([Cl])([Cl])[CH2]CCC`: the mutagenic call was “inactive; negative” (Test System: AMES SALMONELLA TYPHIMURIUM, Strain/Indicator: TA98, Metabolic Activation: NONE, Method: SUSPENSION/PLATE) and “inactive; negative” (Test System: AMES SALMONELLA TYPHIMURIUM, Strain/Indicator: TA100, Metabolic Activation: NONE, Method: SUSPENSION/PLATE).
As to `Cc1ccccc1OCC(O)CNCCOc1ccc(C(N)=O)cc1` (stereo not given), the mutagenic call is “inactive; negative” under setting [9]; “inactive; negative” (Test System: AMES SALMONELLA TYPHIMURIUM, Strain/Indicator: TA98, Metabolic Activation: RAT, LIVER, S-9, AROCLOR 1254, Method: STANDARD PLATE); “inactive; negative” under setting [10]; “inactive; negative” under setting [11].
On to `CNc1nc2c3cccnc3ccc2n1C`, for which the mutagenic call is, setting by setting: (Test System: AMES SALMONELLA TYPHIMURIUM, Strain/Indicator: TA98, Metabolic Activation: RAT, LIVER, S-9, AROCLOR 1254, Method: PREINCUBATION) “active; positive”; (Test System: AMES SALMONELLA TYPHIMURIUM, Strain/Indicator: TA100, Metabolic Activation: RAT, LIVER, S-9, AROCLOR 1254, Method: PREINCUBATION) “active; positive”.
Turning to `COc1cc(O)c2c(=O)c3cc(OC)ccc3oc2c1`, the mutagenic call reads like this: (Test System: AMES SALMONELLA TYPHIMURIUM, Strain/Indicator: TA97, Metabolic Activation: RAT, LIVER, S-9, PHENOBARBITAL AND 5,6-BENZOFLAVONE, Method: PREINCUBATION) “active; positive”; (Test System: AMES SALMONELLA TYPHIMURIUM, Strain/Indicator: TA98, Metabolic Activation: RAT, LIVER, S-9, PHENOBARBITAL AND 5,6-BENZOFLAVONE, Method: PREINCUBATION) “inactive; negative”; (Test System: AMES SALMONELLA TYPHIMURIUM, Strain/Indicator: TA100, Metabolic Activation: RAT, LIVER, S-9, PHENOBARBITAL AND 5,6-BENZOFLAVONE, Method: PREINCUBATION) “active; positive”; (Test System: AMES SALMONELLA TYPHIMURIUM, Strain/Indicator: TA2637, Metabolic Activation: RAT, LIVER, S-9, PHENOBARBITAL AND 5,6-BENZOFLAVONE, Method: PREINCUBATION) “active; positive”.
As for `COP(=O)(OC)Oc1ccc([N+](=O)[O-])c(C)c1`, the mutagenic call under setting [9] is “inactive; negative”; the mutagenic call (Test System: AMES SALMONELLA TYPHIMURIUM, Strain/Indicator: TA98, Metabolic Activation: RAT, LIVER, S-9, Method: STANDARD PLATE) is “active; positive”; the mutagenic call under setting [10] was “inactive; negative”; the mutagenic call (Test System: AMES SALMONELLA TYPHIMURIUM, Strain/Indicator: TA100, Metabolic Activation: RAT, LIVER, S-9, Method: STANDARD PLATE) was “inactive; negative”.
Consider `O=[N+]([O-])c1ccc2c3c(cccc13)C=C2`, for which, under setting [9], the mutagenic call is “active; positive”.
As for `CCCCCCCCCCCCOCCO`, the mutagenic call (End Point: IN VITRO CHROMOSOMAL ABERRATIONS, Test System: CHO-LB CELLS, Metabolic Activation: NONE) is “inactive; negative”; the mutagenic call (End Point: IN VITRO CHROMOSOMAL ABERRATIONS, Test System: CHO-LB CELLS, Metabolic Activation: RAT, LIVER, S-9, AROCLOR 1254) is “inactive; negative”; the mutagenic call under setting [1] was “inactive; negative”; the mutagenic call under setting [2] is “inactive; negative”; the mutagenic call (Test System: AMES SALMONELLA TYPHIMURIUM, Strain/Indicator: TA98, Metabolic Activation: RAT, LIVER, S-9, AROCLOR 1254 (10%), Method: PREINCUBATION) was “inactive; negative”; the mutagenic call under setting [3] is “inactive; negative”. Besides, the mutagenic call is “inactive; negative” under setting [4]; “inactive; negative” (Test System: AMES SALMONELLA TYPHIMURIUM, Strain/Indicator: TA100, Metabolic Activation: RAT, LIVER, S-9, AROCLOR 1254 (10%), Method: PREINCUBATION); “inactive; negative” under setting [5]; “inactive; negative” under setting [6]; “inactive; negative” under setting [7]; “inactive; negative” (Test System: AMES SALMONELLA TYPHIMURIUM, Strain/Indicator: TA1537, Metabolic Activation: HAMSTER, LIVER, S-9, AROCLOR 1254 (10%), Method: PREINCUBATION). Also, the mutagenic call runs as follows: under setting [8], “inactive; negative”; (Test System: AMES SALMONELLA TYPHIMURIUM, Strain/Indicator: TA1537, Metabolic Activation: RAT, LIVER, S-9, AROCLOR 1254 (10%), Method: PREINCUBATION) “inactive; negative”; (Test System: E. COLI, Strain/Indicator: WP2 UVRA, Metabolic Activation: NONE, Method: STANDARD PLATE) “inactive; negative”; (Test System: E. COLI, Strain/Indicator: WP2 UVRA, Metabolic Activation: S-9, Method: STANDARD PLATE) “inactive; negative”.
As to `O[C@H]1c2ccccc2-c2cc3ccc4ccccc4c3cc2[C@@H]1O`, the mutagenic call under setting [11] was “active; positive”.
Regarding `COc1nc(N)nc2c1ncn2[C@H]1C[C@H](O)[C@@H](COP(=O)(O)OP(=O)(O)OP(=O)(O)O)O1`, the mutagenic call (Test System: CHINESE HAMSTER OVARY, Strain/Indicator: CHO-K1 (HGPRT), Metabolic Activation: NONE) is “inactive; negative”.

The values above are taken from PubChem BioAssay AID1259407 (Chemical Carcinogenesis Research Information System (CCRIS), 2018).
